Tests used:
[1] = system: human lung fibroblast cell line MRC5; assay: qPCR of fibrosis-related factors in TGF-β-treated MRC5 cells; type: cell-based; conditions: MRC5, TGF-β1 5 ng/mL, 48 hours
Protocol: Specifically, the human lung fibroblast cell line MRC5 was seeded at a density of 2×10^5 cells per well in a 6-well plate and incubated overnight to allow cell attachment. Subsequently, the medium was removed, and the cells were treated with TGF-β1 at a concentration of 5 ng/mL along with HY209 or TUDCA at concentrations of 0, 0.1, 1, and 10 μM, and cultured for 48 hours before collecting the cells. Following this, RNA was extracted from the cells using the RNeasy Mini Kit (QIAGEN), and cDNA was synthesized using Maxime™ RT PreMix (LiliF Diagnostic). qPCR measurements were conducted using Power SYBR™ Green PCR Master Mix (Thermo Scientific) in accordance with the manufacturer's instructions. Additionally, primers specific for Col1α1, α-SMA, and PAI-1 were utilized to assess their expression, and GAPDH was measured as the internal standard.

[2] = system: bleomycin-induced idiopathic pulmonary fibrosis animal model; assay: Histopathological evaluation of pulmonary fibrosis (Crossman's Trichrome, Matsuse modification of the Ashcroft score); type: in vivo, C57BL/6 mice
Protocol: Specifically, 9-week-old C57BL/6 mice were purchased and allowed to adapt to their environment for one week before the experiment was conducted. […] Water was provided ad libitum, and sterilized feed was used, allowing free access to food. […] The control group was administered saline instead of bleomycin and received a vehicle (0.5% CMC (carboxymethylcellulose) solution) at a dose of 10 mL/kg orally twice daily. Specifically, the mice in each group were sacrificed upon completion of the experiment, and their lungs were excised. The excised lungs were embedded in paraffin for histopathological evaluation and stained according to the Crossman's Trichrome method (Gray P. The Microtomist's Formulary and Guide. Published by Robert E. Krieger Publishing Co.). The histological changes in the lungs were assessed using the Matsuse modification of the Ashcroft score, as presented in Table 2 (Ashcroft H et al. J Clin Pathol (1988) 41:467-70; Matsuse T et al. Eur Respir J (1999) 13:71-77). [table]

[3] = system: bleomycin-induced idiopathic pulmonary fibrosis animal model; assay: Lung weight changes in bleomycin-induced idiopathic pulmonary fibrosis animal model; type: in vivo, C57BL/6 mice
Protocol: Specifically, 9-week-old C57BL/6 mice were purchased and allowed to adapt to their environment for one week before the experiment was conducted. […] Water was provided ad libitum, and sterilized feed was used, allowing free access to food. […] The control group was administered saline instead of bleomycin and received a vehicle (0.5% CMC (carboxymethylcellulose) solution) at a dose of 10 mL/kg orally twice daily. Specifically, the mice in each group were sacrificed upon completion of the experiment, and their lungs were excised. The weights of the excised lungs were then measured.

[4] = system: α-SMA; assay: Immunohistochemical analysis of α-SMA area in lung tissue; type: in vivo, C57BL/6 mice
Protocol: (§1) Specifically, 9-week-old C57BL/6 mice were purchased and allowed to adapt to their environment for one week before the experiment was conducted. The experimental animals were maintained under conditions of 22±2° C., 55±10% relative humidity, and a 12-hour light/dark cycle. Water was provided ad libitum, and sterilized feed was used, allowing free access to food.
(§2) The pulmonary fibrosis group was orally administered a vehicle (0.5% CMC (carboxymethylcellulose) solution) at a dose of 10 mL/kg twice daily, while the experimental group was orally administered HY209 formulated in a 0.5% CMC solution to achieve final concentrations of 10, 30, and 60 mg/kg, also twice daily. The comparison group (Nintedanib administration group) was orally administered Nintedanib, formulated in a vehicle (0.1% Natrosol; Hydroxyethylcellulose solution) to achieve a final concentration of 60 mg/kg, twice daily. The pulmonary fibrosis group (Natrosol administration group) for comparison with the Nintedanib administration group received 10 mL/kg of 0.1% Natrosol solution orally twice daily. The control group was administered saline instead of bleomycin and received a vehicle (0.5% CMC (carboxymethylcellulose) solution) at a dose of 10 mL/kg orally twice daily.
Specifically, the mice in each group were sacrificed upon completion of the experiment, and their lungs were excised. The excised lungs were embedded in paraffin for histopathological evaluation, and sections were obtained and mounted onto slides. Subsequently, the expression distribution of the fibrosis-related factor α-SMA in the lung tissue was evaluated.
Immunohistochemical analysis of α-SMA was performed using polyclonal anti-α-SMA antibodies. Antigen retrieval was conducted using Target Retrieval Solution pH 6 (PT Link module, DAKO). […] The de novo accumulation level of α-SMA was evaluated using digital image analysis software (Visiopharm®). The results were expressed as the percentage (%) of the α-SMA area.

[5] = Body weight changes in bleomycin-induced idiopathic pulmonary fibrosis animal model; type: in vivo, C57BL/6 mice; conditions: HY209 administration group vs control group; oral BID Day 7-Day 21; measured daily
Protocol: as §1, §2
Specifically, the body weight of the mice in each group was measured daily throughout the course of the experiment.

[6] = system: IL-1β; assay: Inhibition of IL-1β production in PMA-differentiated U937 macrophages induced with BzATP (ELISA); type: cell-based, human; conditions: for IC50: Homo sapiens, U-937, U937 macrophages, 12 h pretreatment, BzATP 300 μM 12 h
Protocol: (§3) To evaluate the anti-inflammatory efficacy of HY209 and TUDCA, the human monocytic cell line U937 was treated with PMA (phorbol 12-myristate 13-acetate) to induce differentiation into macrophages.
Specifically, the human monocytic cell line U937 was seeded at a density of 70,000 cells per well in a 96-well plate and cultured for 24 hours in RPMI1640 medium containing 50 nM PMA (phorbol 12-myristate 13-acetate) to induce differentiation into macrophages. The medium was then removed from each well, and HY209 or TUDCA was administered at varying concentrations (HY209: 1, 0.5, 0.25, 0.125, 0.0625, 0.0312, 0.0156, 0.0078 μM; TUDCA: 1000, 316, 100, 31.6, 10, 3.16, 0.316, 0.1, 0.0316, 0.01, 0.00316 μM) for 12 hours. Subsequently, BzATP (2′(3′)-O-(4-Benzoylbenzoyl)adenosine 5′-triphosphate) was added to each well to achieve a final concentration of 300 μM, and the cells were incubated for an additional 12 hours. The supernatants were then collected, and IL-1β levels were measured using an IL-1β ELISA kit (R&D Systems) according to the manufacturer's instructions (FIG. 7a).

[7] = system: TNF-α; assay: Inhibition of TNF-α production in PMA-differentiated U937 macrophages induced with Pam2CSK4 (ELISA); type: cell-based, human; conditions: for IC50: Homo sapiens, U-937, U937 macrophages, Pam2CSK4 50 ng/mL, 4 hours
Protocol: as §3
Additionally, the human monocytic cell line U937 was cultured at a density of 5×10^6 cells in a 100 mm dish containing RPMI1640 medium supplemented with 4 nM PMA (phorbol 12-myristate 13-acetate) for 5 hours to induce differentiation into macrophages. The differentiated macrophages were then seeded into a 96-well plate at a density of 50,000 cells per well and incubated for 24 hours to allow for rest. Following this, the medium was replaced with serum-free medium, and the cells were cultured for an additional 12 hours. The medium was then removed from each well, and the cells were treated with 50 ng/mL of Pam2CSK4 (Pam2CysSerLys4) along with HY209 or TUDCA at varying concentrations (HY209: 10, 4, 2, 1, 0.5, 0.25, 0.125, 0.0625, 0.03125 μM; TUDCA: 100, 50, 25, 12.5, 6.25, 3.125, 1.562, 0.76 μM) for 4 hours. The supernatants were then collected, and TNF-α levels were measured using a TNF-α ELISA kit (R&D Systems) according to the manufacturer's instructions (FIG. 7b).

[8] = 10 mg/kg oral BID Day 7-21, compared to the pulmonary fibrosis group
[9] = 60 mg/kg oral BID Day 7-21, compared to the pulmonary fibrosis group
[10] = 60 mg/kg oral BID Day 7-21, compared to the Natrosol administration group

With C[C@H](CCC(=O)NCCS(=O)(=O)O)[C@H]1CC[C@H]2[C@@H]3CC[C@@H]4C[C@H](O)CC[C@]4(C)[C@H]3C[C@H](O)[C@]12C [HY209, sodium taurodeoxycholate] the Col1α1 expression ([1]; 0.1 μM) was “reduced the expression”, the PAI-1 expression ([1]; 0.1 μM) was “inhibition” and the α-SMA expression ([1]; 0.1 μM) was “inhibition”. For the same compound, the Col1α1 expression ([1]; 1 μM) was “reduced the expression”, the PAI-1 expression ([1]; 1 μM) was “inhibition” and the α-SMA expression ([1]; 1 μM) was “inhibition”. For the same compound, the Col1α1 expression ([1]; 10 μM) was “reduced the expression”, the PAI-1 expression ([1]; 10 μM) was “inhibition” and the α-SMA expression ([1]; 10 μM) was “inhibition”. The “pulmonary fibrosis (Ashcroft score)” value [2, 8] was “statistically significantly decreased”, the “pulmonary fibrosis (Ashcroft score)” value [2, 9] was “statistically significantly decreased” and the lung weight [3, 8] was “statistically significantly decreased”. The lung weight [3, 9] was “statistically significantly decreased”, the α-SMA area ([4]; 10 mg/kg oral BID Day 7-21, compared to the pulmonary fibrosis group and the Natrosol administration group) was “significantly decreased” and the α-SMA area ([4]; HY209 60 mg/kg oral BID Day 7-21, compared to the pulmonary fibrosis group and the Natrosol administration group) was “significantly decreased”. The body weight changes [5] was “no significant differences”, the “IC50 for IL-1β, times lower than that of TUDCA” value ([6]; HY209 vs TUDCA) was 34 times and the IC50 [6] was 44 nM. For the same compound, the “IC50 for TNF-α, times lower than that of TUDCA” value ([7]; HY209 vs TUDCA) was 36 times and the IC50 [7] was 360 nM.

In the case of COC(=O)c1ccc2c(c1)NC(=O)/C2=C(\Nc1ccc(N(C)C(=O)CN2CCN(C)CC2)cc1)c1ccccc1 [Nintedanib, reference compound], the “pulmonary fibrosis (Ashcroft score)” value [2, 10] is reported as “significant reduction”, the lung weight [3, 10] is reported as “significant decrease” and the α-SMA area ([4]; Nintedanib 60 mg/kg oral BID Day 7-21, compared to both the pulmonary fibrosis group and the Natrosol administration group) is reported as “significant reduction”.

In the case of C[C@H](CCC(=O)NCCS(=O)(=O)O)[C@H]1CC[C@H]2[C@@H]3[C@@H](O)C[C@@H]4C[C@H](O)CC[C@]4(C)[C@H]3CC[C@]12C [TUDCA, tauroursodeoxycholic acid, reference compound], the Col1α1 expression ([1]; 0.1 μM) is reported as “increase in expression”, the PAI-1 expression ([1]; 0.1 μM) is reported as “did not demonstrate inhibitory effects” and the α-SMA expression ([1]; 0.1 μM) is reported as “did not demonstrate inhibitory effects”. For the same compound, the Col1α1 expression ([1]; 1 μM) was “increase in expression”, the PAI-1 expression ([1]; 1 μM) was “did not demonstrate inhibitory effects” and the α-SMA expression ([1]; 1 μM) was “did not demonstrate inhibitory effects”. The PAI-1 expression ([1]; 10 μM) was “inhibitory effects”, the α-SMA expression ([1]; 10 μM) was “inhibitory effects” and the IC50 [6] was 1500 nM. It also gave an IC50 [7] of 13100 nM.

Reference: patent publication US20250099487A1, “COMPOSITION FOR PREVENTING OR TREATING PULMONARY FIBROSIS, COMPRISING TAURODEOXYCHOLIC ACID OR PHARMACEUTICALLY ACCEPTABLE SALT THEREOF AS ACTIVE INGREDIENT” (SHAPERON INC., priority 2022, published 2025)
